The nature of data set [1]: Microsomal Stability Assay, rat liver microsomes. It counts as in vitro ADME. To be noted: rat, liver microsomes, pH 7.4; 1 μM compound, 1.0 mg/mL microsome, NADPH; read-out: RLM t1/2. The method, then:
(§1) Compounds were also tested for metabolic stability in both rat liver microsomes (RLM) and human liver microsomes (HLM) and their half-life calculated (See Table 5). The assay was performed as follows. The total volume for each incubation was 250 μL. A 100 μM DMSO solution of compound (diluted from 10 mM stock solution) was spiked into 50 mM KH2PO4 (pH 7.4) buffer containing liver microsome at a concentration of 1.0 mg/mL. The reaction was initiated by the addition of 50 μL of 1 mM NADPH. The final concentration of each compound was 1 μM (1% DMSO). The positive controls, phenacetin for CYP1A2, diclofenac for CYP2C9, omeprazole for CYP2C19, dextromethorphan for CYP2D6 and midazolam for CYP3A4 were added to a separate tube with the final substrate concentrations of 1 μM (1% DMSO) for evaluating the enzyme activities in the liver microsomes. At 0, 15, 30 and 60 min, an aliquot of 15 μL reaction mixtures were removed and 200 μL of methanol (with internal standard of 25 ng/mL propranolol) was added to quench the reaction. The resulting mixture was centrifuged and supernatant was used for LC-MS/MS analysis.
(§2) The signals for each compound, or the metabolites for the probe substrates and the internal standard were integrated and the peak area ratios to internal standard were generated. Percent parent remaining at a specified timepoint was calculated based on the peak area ratios at time 0 (as 100%) for in vitro metabolic stability studies in liver microsome and hepatocyte. The observed rate constant (kobs) for the metabolism of substrates was calculated by plotting the natural log of percentage substrate remaining versus time of incubation with the slope being kobs. The half-life (T1/2) was calculated according to the following equation: T1/2=0.693/kobs

The nature of data set [2]: Microsomal Stability Assay, human liver microsomes. It counts as in vitro ADME. The note with it: pH 7.4, 1 μM compound, 1.0 mg/mL microsome, NADPH, read-out: HLM t1/2. On the procedure:
as §1, §2
Background: Liver microsomes are vesicles of endoplasmic reticulum, rich in cytochrome P450 enzymes.

A further data set has as its system Calu-6 (lung). As to the kind of experiment: Cancer Cell Proliferation Assay (acid phosphatase, 72 hrs). To be noted: Homo sapiens, read-out: IC50 on cancer cell line proliferation, Calu6. It is filed as cell-based. The method, then:
(§3) Measurement of the inhibitive effect of compounds on cancer cell proliferation was performed. Various cell lines were tested, including HCT-116 (colon); A549 (lung); TOV-21G (ovarian); Calu-6 (lung); H1703 (Lung); LS-174T (colon); and SKOV3 (ovarian). The assays were performed under the following conditions: Cells are harvested at a concentration of 4×10^4 cells/ml in media. Volumes of 100 μl/well of these cell suspensions were added to a 96 well plate using a multichannel pipette. Plates were gently agitated to ensure an even dispersion of cells over a given plate. Cells were then incubated at 37° C., 5% CO^2 overnight. Following this, 100 μl of compound at varying concentrations was added to wells in triplicate. Control wells are those with 100 μl media containing 0.33% DMSO added to cell suspension (this is the equivalent volume of DMSO found in the highest concentration of drug). Plates were then gently agitated, as above, and incubated at 37° C., 5% CO2 for 72 hrs (control wells have reached 80-90% confluency). Assessment of cell proliferation in the presence of the compound was determined by the acid phosphatase assay.
(§4) Following the incubation period of 72 hrs, media was removed from the plates. Each well on the plate was washed twice with 100 μl PBS. This was then removed and 100 μl of freshly prepared phosphatase substrate (10 mM p-nitrophenol phosphate in 0.1M sodium acetate, 0.1% triton X-100, pH 5.5) was added to each well. The plates were then incubated in the dark at 37° C. for 2 hours. Colour development was monitored during this time. The enzymatic reaction was stopped by the addition of 50 μl of 1N NaOH. The plate was read in a dual beam plate reader at 405 nm with a reference wavelength of 620 nm. The absorbance reading of the latter is subtracted from the former, and the effect of the drug on cell proliferation was then measured as a percentage against the control cells (DMSO), which is taken as 0% inhibition. […] FIG. 14 A-K also show the % inhibition curves of various compounds on these cancer cell lines with the 72 hrs proliferation assay.

For another data set, the system named is A549 (lung). Described as above. It counts as cell-based. The note with it: Homo sapiens, A549, 72 h, heading: IC50 on cancer cell line proliferation. On the procedure:
as §3, §4

Another data set relates to LS-174T (colon). The description is as above. It counts as cell-based. To be noted: Homo sapiens, LS174T, read-out: IC50 on cancer cell line proliferation, LS-174T. The method, then:
as §3, §4

The test system of another data set is SKOV3 (ovarian). The data set is described as above. It counts as cell-based. To be noted: Homo sapiens, SK-OV-3, read-out: IC50 on cancer cell line proliferation, SKOV3. On the procedure: as §3, §4
The subject of the next data set is HCT-116 (colon). Described as above. It is filed as cell-based. The note with it: Homo sapiens, read-out: IC50 on cancer cell line proliferation, HCT-116. The method, then:
as §3, §4

In another data set the test system is TOV-21G (ovarian). The data set is described as above. It counts as cell-based. To be noted: Homo sapiens, TOV21G, read-out: IC50 on cancer cell line proliferation, TOV-21G. The method, then:
as §3, §4

This is an account of results in patent publication US10308617B2, “Triazole benzamide derivatives and the compositions and methods of treatment regarding the same” (An2H Discovery Limited, priority 2016, dated 2019).

Molecules are shown by their SMILES.

For `O=C(Nc1nc(Nc2ncnc3ccccc23)n(-c2ccccc2)n1)c1ccccc1` [Compound L, N-[1-phenyl-5-(quinazolin-4-ylamino)-1,2,4-triazol-3-yl]benzamide], the half-life at 1 μM in data set [1] is 59.2 min; in data set [2] it was 38.5 min. Further, the IC50 in the data set on Calu-6 (lung) was 2270 nM; in the data set with A549 (lung) it was 1550 nM; in the data set with LS-174T (colon) it was 1520 nM; with SKOV3 (ovarian) it was 1230 nM; with HCT-116 (colon), 939 nM; in the data set with TOV-21G (ovarian), 989 nM.
